Measured values: patent US12415799B2, “Indazole-fused cyclic compound” (Zhejiang Yangli Pharmaceutical Technology Co., Ltd., priority 2020, dated 2025)
pIC50: −log10 of the molar value. Like-named read-outs stand apart in the source and are kept apart here.

Key:
MCF-7 cells = test: MCF-7 cell proliferation inhibition experiment; type: cell-based; details: Homo sapiens, MCF7, 144 h, 6 days incubation, CellTiter-Glo, read-out: Anti-cell proliferation activity of MCF-7
Protocol: (1) MCF-7 Cell Proliferation Inhibition Experiment:
(§1) EMEM culture medium was purchased from Wisent, and fetal bovine serum was purchased from Biosera, Promega CellTiter-Glo reagent. MCF-7 cell line was purchased from Cell Bank of Type Culture Collection of Chinese Academy of Sciences. Nivo5 multi-label analyzer (PerkinElmer).
MCF-7 cells were seeded in a white 384-well plate with 600 cells per well in every […] of the cell suspension. The cell plate was placed in a carbon dioxide incubator and cultured overnight.
The test compound was diluted to the 10th concentration with a multi-channel pipette, and the compound concentration was 1 mM, 400 μM, and 80 μM, and then diluted to the 10th concentration of 1 nM in turn, and a double-duplicate experiment was set-up. 47.5 μL of culture medium was added to the middle plate, then 2.5 μL of gradient dilution compound per well was transferred to the middle plate according to the corresponding position, and 5 μL of the mixture per well was mixed evenly and transferred to the cell plate. The cell plate was placed in a carbon dioxide incubator and cultured for 6 days.
After 6 days of co-incubation of the compound, the culture medium was removed by centrifugation, and 25 μL of Promega CellTiter-Glo reagent was added to each well of the cell plate, and incubated at room temperature for 10 minutes to stabilize the luminescence signal. PerkinElmer Nivo multi-marker analyzer reading was used. In the experiment, the reading of 2 μM positive reference compound H3B-6545(US20160347717A1) was used as a positive control to participate in data calculation.
The equation % Inhibition=((RFUCmpd−AVER(RFUNeg.ctrl))/((AVER(RFUPos.Ctrl)−AVER(RFUNeg.ctrl))×100% was used to convert the original data into inhibition rate, and the compound curve was fitted by log(inhibitor)vs. response-Variable slope of Graphpad Prism 5. The IC50 value was calculated by the software through the formula Y=Bottom+(Top−Bottom)/(1+10^((Log IC50−X)*HillSlope)).

ERα = ERα (Homo sapiens (Human), UniProt P03372); test: Degradation experiment of MCF-7 ERα (ELISA); type: cell-based; details: MCF-7 cell line, 4 hours incubation, total ERα ELISA; read-out: IC50 value of promoting ERα degradation
From the text: (2) Degradation Experiment of MCF-7 ERα Experimental Materials:
as §1, with “Phenol red-free MEM” for “EMEM”, “Wisent,” for “Wisent, and”, “and Human Total ERα/NR3A1 ELISA kit was purchased from R&D.” for “Promega CellTiter-Glo reagent.”
MCF-7 cells were resuspended in culture medium (phenol red-free MEM+5% charcoal/dextran-treated fetal bovine serum+1% penicillin-streptomycin double antibody solution), and seeded in a clear 96-well cell culture plate with 80 μL per well containing 20,000 cells, and the cell culture plate was incubated overnight in a carbon dioxide incubator;
ELISA plate was coated with strips, human total estrogen receptor a capture antibody was diluted with 1×PBS with a final concentration of 1 μg/mL, and 100 μL of mixture was added to each well, and incubated overnight at 25° C.
Cell administration: The test compound was diluted to the 8th concentration with a multi-channel pipette, and the compound concentration was 20 μM and 4 μM, and then diluted to the 8th concentration of 0.256 nM in turn, and a double-duplicate experiment was set-up. 78 μL of culture medium was added to the middle plate, then 2 μL of gradient dilution compound per well was transferred to the middle plate according to the corresponding position, and 20 μL of the mixture per well was mixed evenly and transferred to the cell plate, and the final concentration of DMSO was 0.5%, and the mixture was incubated at 37° C. for 4 hours;
preparation of standard curve solution: 110 ng/mL of standard curve storage solution was 6-fold diluted with buffer (1×PBS containing 1 mM EDTA, 0.5% Triton X-100, pH 7.2 to 7.4) to obtain a solution with a concentration of 18.3 ng/mL, and then 91.5-fold diluted with buffer (1×PBS containing 1 mM EDTA, 0.5% Triton X-100, 1 M urea, pH 7.2 to 7.4) to obtain a solution with a concentration of 0.2 ng/mL, and 8-point gradient dilution was performed using buffer (1×PBS containing 1 mM EDTA, 0.5% Triton X-100, 1 M urea, pH 7.2 to 7.4) with a final concentration of […].
1×PBS was pre-cooled, and after the incubation of the compound, the supernatant was removed, and then the plate was washed with 250 μL of pre-cooled 1×PBS per well, then 30 µL of cell lysate per well (1×PBS containing 1 mM EDTA, 0.5% Triton X-100, 6 M urea, 1 mM active sodium orthovanadate, 2.5 mM sodium pyrophosphate, lx protease inhibitor, pH 7.2 to 7.4) was added, and lysed on ice for 15 minutes;
after cell was lysed in the cell plate, the cell lysate was 6-fold diluted with 150 μL of buffer (1×PBS containing 1 mM EDTA, 0.5% Triton X-100, pH 7.2 to 7.4) per well, and the mixture was mixed evenly by blowing with a multi-channel pipette, and 100 μL of solution per well was transferred to the ELISA plate;
the human total estrogen receptor a detection antibody stock solution (14.4 μg/mL) was 36-fold diluted with buffer (1×PBS containing 1% bovine serum albumin), and the final concentration of the detection antibody was 400 ng/mL, and 100 μL of the solution per well was transferred to the ELISA plate and incubated at 25° C. for 2 hours;
Data analysis: A, B, C and D in the four-parameter equation y=(A−D)/[1+(x/C)^B]+D were calculated according to the original data of the standard curve, wherein, y was the original OD450 value, x was the concentration of the corresponding point of the standard curve. According to the four-parameter equation and the OD450 reading of the original data of the sample, the concentration of ERα at the corresponding point was calculated. The equation (Sample−Min)/(Max−Min)×100% was used to convert the original data into inhibition rate, and the IC50 value could be obtained by curve fitting with four parameters (obtained by “log (inhibitor) vs. response—variable slope” mode in GraphPad Prism).
Max wells: Positive control wells reading at 100 nM Fulvestrant-treated cell wells […]

CYP3A4 = CYP3A4 (Homo sapiens (Human), UniProt P08684); test: Cytochrome P450 isoenzyme inhibition, human liver microsomes; type: in vitro ADME
Protocol: (§2) Experimental purposes: To test the inhibitory effect of test compound on the activity of human liver microsomal cytochrome P450 isoenzymes (CYP1A2 and CYP3A4) (Corning, Co., Ltd.).
(§3) Experimental operation: Firstly, the test compound (10 mM) was subjected to gradient dilution to prepare a working solution (100×final concentration), and the concentration of the working solution was: 5, 1.5, 0.5, 0.15, 0.05, 0.015 and 0.005 mM, respectively, and the working solution of each positive inhibitor of P450 isoenzyme (CYP1A2 and CYP3A4) and its specific substrate mixture (5 in 1) were prepared; and then the human liver microsomes frozen in the −80° C. refrigerator were thawed on ice, and all the human liver microsomes were dissolved, diluted with PB, and a certain concentration of working solution (0.253 mg/mL) was prepared; 20 μL of substrate mixture was added to the reaction plate (20 μL of PB was added to the blank well), while 158 μL of human liver microsomal working solution was added to the reaction plate, and the reaction plate was placed on ice for later use; at this time, 2 μL of various concentrations of the test compound (N=1) and specific inhibitor (N=2) were added to the corresponding well, and the corresponding organic solvent was added to the non-inhibitor (test compound or positive inhibitor) group as a control group sample (a ratio of DMSO:MeOH in the test compound control sample was 1:1, a ratio of DMSO:MeOH in the positive control sample was 1:9); after pre-incubation in a water bath at 37° C. for 10 min, 20 μL of coenzyme factor (NADPH) solution was added to the reaction plate, and incubated in a water bath at 37° C. for 10 min; and 400 μL of cold acetonitrile solution (internal standard was 200 ng/mL tolbutamide and labetalol) was added to terminate the reaction; the reaction plate was placed on a shaker and shaked for 10 minutes; and then centrifuged at 4,000 rpm for 20 minutes; 200 μL of the supernatant was taken and added to 100 μL of water for sample dilution; finally the plate was sealed, shaked and shaked well, for LC/MS/MS detection.

CYP1A2 = CYP1A2 (Homo sapiens (Human), UniProt P05177); type: in vitro ADME; details: microsomes
Protocol: as §2, §3

rat uterus = test: Uterine wet weight inhibition experiment in rat cubs; type: in vivo; details: 18-day-old female rat pups, oral, three consecutive days; compounds 25 mg/kg, Ethinylestradiol 0.1 mg/kg
Protocol: The purpose of this experiment was to evaluate the effect of the compound of the present disclosure on uterine growth inhibition in 18 to 21-day-old female rat pups (provided by Beijing Vital River Laboratory Animal Technology Co., Ltd.). In this experiment, 18-day-old female rat pups were orally administered the compound of the present disclosure at a dose of 25 mg/kg for three consecutive days, and the control group was orally administered 0.1 mg/kg of Ethinylestradiol for three consecutive days, and the blank group was not given any drug except the corresponding solvent. Three days after the administration, the rats were sacrificed, and the weight of the rat uterus was weighed to observe the effect of the test drug on the growth inhibition of the rat uterus. Inhibition rate=100×[(VehicleEE−Cpd)/(VehicleEE−Vehicle)], VehicleEE was the wet weight of the rat uterus in the control group (administered 0.1 mg/kg of Ethinylestradiol orally); Cpd was the wet weight of the rat uterus in administration group; Vehicle was the wet weight of the rat uterus in the blank group.

[1] = in vivo, cited from earlier work
breast cancer = details: intramuscular injection; cited from earlier work

CYP3A4, sequence (P08684 whole entry): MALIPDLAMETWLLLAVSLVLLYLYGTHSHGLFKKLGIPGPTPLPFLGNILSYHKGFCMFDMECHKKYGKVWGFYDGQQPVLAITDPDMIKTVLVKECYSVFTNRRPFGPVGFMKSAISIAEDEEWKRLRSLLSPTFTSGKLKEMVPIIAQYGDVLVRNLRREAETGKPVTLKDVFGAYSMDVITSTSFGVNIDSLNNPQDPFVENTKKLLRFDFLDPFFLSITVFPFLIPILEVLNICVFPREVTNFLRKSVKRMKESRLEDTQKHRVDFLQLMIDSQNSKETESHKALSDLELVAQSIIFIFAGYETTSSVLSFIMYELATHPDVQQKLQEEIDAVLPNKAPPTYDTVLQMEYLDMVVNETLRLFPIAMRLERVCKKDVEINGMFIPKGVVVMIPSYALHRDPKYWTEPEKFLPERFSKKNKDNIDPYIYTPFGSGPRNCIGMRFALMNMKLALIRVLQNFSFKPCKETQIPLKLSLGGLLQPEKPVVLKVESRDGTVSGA
CYP1A2, sequence (P05177 whole entry): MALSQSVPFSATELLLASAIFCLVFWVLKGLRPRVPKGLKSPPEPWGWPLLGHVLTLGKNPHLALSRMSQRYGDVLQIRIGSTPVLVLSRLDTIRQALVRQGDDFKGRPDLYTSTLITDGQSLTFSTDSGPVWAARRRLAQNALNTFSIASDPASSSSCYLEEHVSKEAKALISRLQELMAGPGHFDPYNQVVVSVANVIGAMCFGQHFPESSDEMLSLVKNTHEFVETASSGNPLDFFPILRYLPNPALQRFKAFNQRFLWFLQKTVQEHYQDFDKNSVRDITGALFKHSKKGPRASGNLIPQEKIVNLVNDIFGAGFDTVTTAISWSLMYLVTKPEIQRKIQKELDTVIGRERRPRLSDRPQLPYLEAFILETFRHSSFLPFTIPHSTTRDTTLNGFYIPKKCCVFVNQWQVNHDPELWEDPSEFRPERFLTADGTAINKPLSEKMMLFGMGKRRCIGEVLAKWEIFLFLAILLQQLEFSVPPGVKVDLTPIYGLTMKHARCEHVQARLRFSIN
ERα, sequence (P03372 whole entry): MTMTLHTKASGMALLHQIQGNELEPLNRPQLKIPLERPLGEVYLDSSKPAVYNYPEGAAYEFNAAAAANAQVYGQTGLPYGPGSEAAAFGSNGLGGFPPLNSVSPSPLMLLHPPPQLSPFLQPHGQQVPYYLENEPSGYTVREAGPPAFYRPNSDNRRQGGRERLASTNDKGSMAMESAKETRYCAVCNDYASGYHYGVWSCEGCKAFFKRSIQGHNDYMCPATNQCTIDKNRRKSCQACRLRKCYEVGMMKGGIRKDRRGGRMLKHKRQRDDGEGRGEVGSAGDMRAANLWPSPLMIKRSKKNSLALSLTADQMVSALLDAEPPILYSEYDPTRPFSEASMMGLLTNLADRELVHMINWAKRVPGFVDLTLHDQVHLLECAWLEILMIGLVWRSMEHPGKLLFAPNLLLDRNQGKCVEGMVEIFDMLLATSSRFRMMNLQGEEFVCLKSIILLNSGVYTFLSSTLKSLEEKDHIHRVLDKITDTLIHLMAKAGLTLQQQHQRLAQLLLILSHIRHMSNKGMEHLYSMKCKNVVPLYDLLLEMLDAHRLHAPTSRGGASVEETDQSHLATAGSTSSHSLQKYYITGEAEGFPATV

Row | SMILES | pIC50 (MCF-7 cells) | DC50 (ERα) [nM] | pIC50 (CYP3A4) | pIC50 (CYP1A2; human, 10 min) | also measured
1 | FCCCN1CC(Nc2ccc(C3=C(CC(F)(F)F)CCCc4c3ccc3[nH]ncc43)nc2)C1 [Compound 6] | 9.51 | 0.42 | – | – | –
2 | FCCCN1CC(Nc2cnc(C3=C(CC(F)(F)F)CCOc4c3ccc3[nH]ncc43)cn2)C1 [Compound 3] | 8.86 | 0.45 | 4.87 | < 4.30 | –
3 | C#C[C@]1(O)CC[C@H]2[C@@H]3CCc4cc(O)ccc4[C@H]3CC[C@@]21C [Ethinylestradiol, reference compound] | – | – | – | – | Inhibition rate (rat uterus): 0%; Ratio of uterine wet weight/rat body weight (rat uterus): 2.45 mg/g; Uterine wet weight (rat uterus): 132.2 mg
4 | N#Cc1cc(C2=C(CC(F)(F)F)CCCc3c2ccc2[nH]nc(F)c32)ncc1NC1CN(CCCF)C1 [Compound 10] | – | – | 4.51 | 4.32 | –
5 | C[C@]12CC[C@@H]3c4ccc(O)cc4C[C@@H](CCCCCCCCC[S+]([O-])CCCC(F)(F)C(F)(F)F)[C@H]3[C@@H]1CC[C@@H]2O (some centres unmarked) [fulvestrant, Fulvestrant] | – | – | – | – | oral bioavailability ([1]; po): close to zero; blood clearance rate [1]: high; breast cancer patients showing clinical response (breast cancer): about 50%

The remaining molecules from weak to strong by DC50 (ERα), led by results:

Row | pIC50 (MCF-7 cells) | DC50 (ERα) [nM] | pIC50 (CYP3A4) | pIC50 (CYP1A2; human, 10 min) | SMILES | also measured
6 | – | 0.4 | – | – | FCCCN1CC(Nc2cnc(C3=C(CC(F)(F)F)CCCc4c3ccc3[nH]ncc43)nc2)C1 [Compound 7] | –
7 | 9.15 | 0.37 | 4.38 | – | FCCCN1CC(Nc2cnc(C3=C(CC(F)(F)F)CCCc4c3ccc3[nH]nc(F)c43)cn2)C1 [Compound 8] | pIC50 (CYP1A2): < 4.30
8 | 9.38 | 0.25 | – | – | OCCCC1=C(c2ccc(OC3CN(CCCF)C3)cc2)c2ccc3[nH]ncc3c2CCC1 [Formate of 1] | –
9 | – | 0.17 | 4.95 | < 4.30 | FCCCN1CC(Nc2ncc(C3=C(CC(F)(F)F)CCCc4c3ccc3[nH]ncc43)cn2)C1 [Compound 4] | –
10 | 9.72 | 0.017 | – | – | FCCCN1CC(Nc2cnc(C3=C(CC(F)(F)F)CCCc4c3ccc3[nH]ncc43)cn2)C1 [Compound 5] | –
